# Earlier results in patent publication US20070106232A1, “METHOD AND APPARATUS FOR EXTENDING FEEDING TUBE LONGEVITY” (priority 2003, published 2007).
# Numbered stars: 1 amine (or outer) side, 2 acyl side, 3 side chain; on linkers, the order of the positions; unused ones are H or OH. Bridge positions count the residues as written; N and C are the ends. Square brackets hold non-standard residues; d marks the D form. Peptide text beside a SMILES is read from it. * marks the point of attachment. hTyr(3S-OH,4S-OH,3'-OSO3H) = N[C@H](C(=O)O)[C@H](O)[C@@H](O)c1ccc(O)c(OS(=O)(=O)O)c1; Orn(4R-OH,5R-OH) = O=C([C@H](C[C@@H](O)[C@@H](O)N[*:3])N[*:1])[*:2]; Pro(3S-OH,4S-Me) = C[C@H]1CN[C@H](C(=O)O)[C@H]1O; X1 = CCCCCOc1ccc(-c2cc(-c3ccc(C(=O)*)cc3)no2)cc1; Gln(3R-OH) = NC(=O)C[C@@H](O)[C@H](N)C(=O)O; Hyp = O=C(O)[C@@H]1C[C@@H](O)CN1
# Columns and labels:
# [1] = test system: yeast crust on inner surface of the tube; conditions: segments incubated in vitro overnight, endoscopic brush next day
# [2] = test system: feeding tube colonized with Candida; conditions: nystatin suspension 500,000 units/5 mL in the off cycle; amphotericin B 1 mg/10 mL for one week; tube lumen filled
# [3] = test system: Candida albicans and Candida parapsilosis biofilms
# [4] = test system: Candida albicans biofilms
# [5] = test system: Candida albicans biofilms; conditions: preformed Candida albicans biofilms; physiological concentrations; time-kill
# Candida spp. = conditions: including azole-resistant (Candida krusei), less susceptible (C. dubliniensis, C. glabrata) or amphotericin B resistant isolates
# [6] = test system: fungal colonization of feeding tubes; conditions: pre-procedural preparation of the oropharynx, 1%
compound,measurement,setting,value
C[C@@H]1[C@H](O)[C@@H](C)/C=C/C=C/C=C/C=C/C=C/C=C/C=C/[C@H](O[C@@H]2O[C@H](C)[C@@H](O)[C@H](N)[C@@H]2O)C[C@@H]2O[C@](O)(C[C@@H](O)C[C@@H](O)[C@H](O)CC[C@@H](O)C[C@@H](O)CC(=O)O[C@H]1C)C[C@H](O)[C@H]2C(=O)O [amphotericin B],clearing the yeast crust from the inner surface of the tube,[1],unsuccessful
same,clearing of a feeding tube colonized with Candida,[2],unsuccessful
same,activity against Candida biofilms,[3],resistant
C[C@@H](c1nc(-c2ccc(C#N)cc2)cs1)[C@](O)(Cn1cncn1)c1ccc(F)cc1F [ravuconazole],activity against Candida biofilms,[3],resistant
CN(C/C=C/C#CC(C)(C)C)Cc1cccc2ccccc12 [terbenafine],activity against Candida biofilms,[3],resistant
C[C@@H](c1ncncc1F)[C@](O)(Cn1cncn1)c1ccc(F)cc1F [voriconazole],activity against Candida biofilms,[3],resistant
OC(Cn1cncn1)(Cn1cncn1)c1ccc(F)cc1F [fluconazole],activity against Candida biofilms,[3],resistant
C[C@@H]1[C@H](O)[C@@H](C)/C=C/C=C/CC/C=C/C=C/C=C/C=C/C(O[C@H]2O[C@H](C)[C@@H](O)[C@H](N)[C@@H]2O)CC2O[C@](O)(CC(O)C(O)CCC(O)CC(O)CC(O)CC(=O)O[C@H]1C)CC(O)C2C(=O)O (some centres unmarked) [nystatin],clearing the yeast crust from the inner surface of the tube,[1],unsuccessful
same,clearing of a feeding tube colonized with Candida,[2],unsuccessful
same,activity against Candida biofilms,[3],resistant
CC[C@H](C)C[C@H](C)CCCCCCCCC(=O)N[C@H]1C[C@@H](O)[C@@H](NCCN)NC(=O)[C@@H]2[C@@H](O)CCN2C(=O)[C@H]([C@H](O)CCN)NC(=O)[C@H]([C@H](O)[C@@H](O)c2ccc(O)cc2)NC(=O)[C@@H]2C[C@@H](O)CN2C(=O)[C@H]([C@@H](C)O)NC1=O [caspofungin],effect of coating of biomaterials on subsequent biofilm development by Candida albicans,[4]; biomaterials coated with drug,inhibitory effect
same,effects on preformed Candida albicans biofilms,[4]; scanning electron microscopy and confocal scanning laser microscopy,altered the cellular morphology and the metabolic status
same,minimum inhibitory concentration at which 50% of the sessile cells were inhibited,[4]; sessile Candida albicans cells,well within the drug's therapeutic range
same,in vitro activity against sessile Candida albicans cells within biofilms,[4]; sessile cells within biofilms,potent in vitro activity
same,killing,[5],≥ 99%
same,activity against Candida biofilms,[3],showed activity
same,activity against Candida spp.,Candida spp.,active
"CCCCCOc1ccc(-c2cc(-c3ccc(C(=O)N[C@H]4C[C@@H](O)[C@@H](O)NC(=O)[C@@H]5[C@@H](O)[C@@H](C)CN5C(=O)[C@H]([C@H](O)CC(N)=O)NC(=O)[C@H]([C@H](O)[C@@H](O)c5ccc(O)c(OS(=O)(=O)O)c5)NC(=O)[C@@H]5C[C@@H](O)CN5C(=O)[C@H]([C@@H](C)O)NC4=O)cc3)no2)cc1 [micofungin] (X1-[Orn(4R-OH,5R-OH)]T[Hyp][hTyr(3S-OH,4S-OH,3'-OSO3H)][Gln(3R-OH)][Pro(3S-OH,4S-Me)]; lactam 1-C)",activity against Candida biofilms,[3],showed activity
neomycin,prophylaxis of fungal colonization of feeding tubes,[6],failed
[H]/N=C(\N/C(=N/[H])NCCCCCCNC(=N)NC(=N)Nc1ccc(Cl)cc1)Nc1ccc(Cl)cc1 [chlorhexidine],activity against Candida biofilms,[3],resistant
